The cell lines below were run with CC(C)C[C@H](NC(=O)[C@H](CCc1ccccc1)NC(=O)CN1CCOCC1)C(=O)N[C@@H](Cc1ccccc1)C(=O)N[C@@H](CC(C)C)C(=O)[C@@]1(C)CO1 [Carfilzomib] + Cc1nc(Nc2ncc(C(=O)Nc3c(C)cccc3Cl)s2)cc(N2CCN(CCO)CC2)n1 [Dasatinib] (partner 0.075 µM) (assay: relative viability (nuclei count vs DMSO), 5 days (fraction); higher = more cells survive). Details: first compound 0.1 µM.
Method in brief: (§1)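 Relative viability equals treated-well nuclei counts divided by vehicle-well nuclei counts. Counts came from 4× images of lung cancer cell lines grown in 1536-well plates for 5 days after pin-tool dosing on the day after seeding. Dosing used one drug alone or a fixed anchor-drug dose plus five library-drug doses (not always all listed) in √10 steps, and values are medians of duplicate plates.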
In the case of NCI-H1975, the relative viability is reported as 0.107. With NCI-H1993 the relative viability was 0.453. NCI-H2009 was tested, and the relative viability was 0.0713. NCI-H2023 showed a relative viability of 0.082. Work on NCI-H2085 yielded a relative viability of 0.192. NCI-H2087 was tested, and the relative viability was 0.0695. NCI-H2126 was tested, and the relative viability was 0.268. NCI-H2170 showed a relative viability of 0.237. NCI-H2342 was tested, and the relative viability was 0.321. Cell Line NCI-H2347 has a relative viability of 0.173.

Each cell line was assayed with C[C@@H](Oc1cc(-c2cnn(C3CCNCC3)c2)cnc1N)c1c(Cl)ccc(F)c1Cl [Crizotinib] + Nc1ncn([C@H]2C[C@H](O)[C@@H](CO)O2)c(=O)n1 [Decitabine] (partner 2 µM) in the same assay as above. Details: first compound 0.01 µM.
Method in brief: as §1
LXF-289 showed a relative viability of 0.325. NCI-H23 gave a relative viability of 0.296. For NCI-H358, the relative viability was 0.184. In the case of NCI-H441, the relative viability is reported as 0.242. NCI-H460 gave a relative viability of 0.451. Cell Line NCI-H520 has a relative viability of 0.474. In the case of NCI-H522, the relative viability is reported as 0.649. NCI-H647 showed a relative viability of 0.396. With NCI-H650 the relative viability was 0.332. NCI-H661 gave a relative viability of 0.546. With NCI-H838 the relative viability was 0.433. Work on NCI-H1355 yielded a relative viability of 0.348. Work on NCI-H1395 yielded a relative viability of 0.661. NCI-H1437 was tested, and the relative viability was 0.547. NCI-H1650 was tested, and the relative viability was 0.3. For NCI-H1651, the relative viability was 0.592. NCI-H1666 showed a relative viability of 0.744. In the case of NCI-H1734, the relative viability is reported as 0.466. NCI-H1755 showed a relative viability of 0.639. With NCI-H1792 the relative viability was 0.563. NCI-H1915 gave a relative viability of 0.229. Cell Line NCI-H1944 has a relative viability of 0.387. Work on NCI-H1975 yielded a relative viability of 0.404. With NCI-H1993 the relative viability was 0.515. In the case of NCI-H2009, the relative viability is reported as 0.382. With NCI-H2023 the relative viability was 0.186. NCI-H2085 showed a relative viability of 0.565. With NCI-H2087 the relative viability was 0.259. In the case of NCI-H2126, the relative viability is reported as 0.51. In the case of NCI-H2170, the relative viability is reported as 0.407. NCI-H2342 gave a relative viability of 0.761. NCI-H2347 was tested, and the relative viability was 0.69.

Same assay, conditions: first compound 0.03162 µM
With LXF-289 the relative viability was 0.394. With NCI-H23 the relative viability was 0.272. With NCI-H322M the relative viability was 0.713. For NCI-H358, the relative viability was 0.215. NCI-H441 was tested, and the relative viability was 0.238. NCI-H460 showed a relative viability of 0.511. Cell Line NCI-H520 has a relative viability of 0.47. NCI-H522 was tested, and the relative viability was 0.709. Cell Line NCI-H596 has a relative viability of 0.993. For NCI-H647, the relative viability was 0.382. NCI-H650 gave a relative viability of 0.291. NCI-H661 was tested, and the relative viability was 0.533. For NCI-H838, the relative viability was 0.473. With NCI-H1355 the relative viability was 0.344. NCI-H1395 gave a relative viability of 0.688. NCI-H1437 was tested, and the relative viability was 0.551. Work on NCI-H1650 yielded a relative viability of 0.455. Work on NCI-H1651 yielded a relative viability of 0.407. With NCI-H1666 the relative viability was 0.651. Cell Line NCI-H1734 has a relative viability of 0.5. Cell Line NCI-H1755 has a relative viability of 0.713. NCI-H1792 showed a relative viability of 0.51. NCI-H1915 showed a relative viability of 0.256. NCI-H1944 was tested, and the relative viability was 0.412. Cell Line NCI-H1975 has a relative viability of 0.322. With NCI-H1993 the relative viability was 0.525. NCI-H2009 showed a relative viability of 0.372. Work on NCI-H2023 yielded a relative viability of 0.236. With NCI-H2085 the relative viability was 0.518. NCI-H2087 gave a relative viability of 0.247. Cell Line NCI-H2126 has a relative viability of 0.568. NCI-H2170 was tested, and the relative viability was 0.475. Work on NCI-H2342 yielded a relative viability of 0.799. With NCI-H2347 the relative viability was 0.616.

Same assay, conditions: first compound 0.1 µM
In the case of LXF-289, the relative viability is reported as 0.402. With NCI-H23 the relative viability was 0.331. NCI-H322M gave a relative viability of 0.687. NCI-H358 was tested, and the relative viability was 0.2. In the case of NCI-H441, the relative viability is reported as 0.248. NCI-H460 gave a relative viability of 0.476. Work on NCI-H520 yielded a relative viability of 0.496. For NCI-H522, the relative viability was 0.762. Work on NCI-H596 yielded a relative viability of 1.01. NCI-H647 showed a relative viability of 0.262. Work on NCI-H650 yielded a relative viability of 0.323. For NCI-H661, the relative viability was 0.531. For NCI-H838, the relative viability was 0.473. NCI-H1355 was tested, and the relative viability was 0.392. Work on NCI-H1395 yielded a relative viability of 0.743. NCI-H1437 gave a relative viability of 0.613. NCI-H1650 was tested, and the relative viability was 0.466. NCI-H1651 showed a relative viability of 0.63. In the case of NCI-H1666, the relative viability is reported as 0.715. Work on NCI-H1734 yielded a relative viability of 0.493. For NCI-H1755, the relative viability was 0.755. In the case of NCI-H1792, the relative viability is reported as 0.523. NCI-H1915 showed a relative viability of 0.261. For NCI-H1944, the relative viability was 0.463. Cell Line NCI-H1975 has a relative viability of 0.466. NCI-H1993 showed a relative viability of 0.608. Cell Line NCI-H2009 has a relative viability of 0.348. NCI-H2023 showed a relative viability of 0.272. In the case of NCI-H2085, the relative viability is reported as 0.554. For NCI-H2087, the relative viability was 0.252. NCI-H2126 was tested, and the relative viability was 0.579. For NCI-H2170, the relative viability was 0.467. With NCI-H2342 the relative viability was 0.781. NCI-H2347 was tested, and the relative viability was 0.674.

Same assay, conditions: first compound 0.3162 µM
With LXF-289 the relative viability was 0.344. In the case of NCI-H322M, the relative viability is reported as 0.721. Work on NCI-H358 yielded a relative viability of 0.241. Cell Line NCI-H441 has a relative viability of 0.23. NCI-H460 gave a relative viability of 0.645. With NCI-H520 the relative viability was 0.533. NCI-H522 gave a relative viability of 0.657. Work on NCI-H596 yielded a relative viability of 1.08. For NCI-H647, the relative viability was 0.508. For NCI-H661, the relative viability was 0.594. Cell Line NCI-H838 has a relative viability of 0.483. NCI-H1355 showed a relative viability of 0.338. Cell Line NCI-H1395 has a relative viability of 0.791. In the case of NCI-H1437, the relative viability is reported as 0.61. Cell Line NCI-H1650 has a relative viability of 0.396. Work on NCI-H1651 yielded a relative viability of 0.326. NCI-H1666 showed a relative viability of 0.712. Cell Line NCI-H1755 has a relative viability of 0.694. NCI-H1915 gave a relative viability of 0.258. Work on NCI-H1944 yielded a relative viability of 0.409. With NCI-H1975 the relative viability was 0.31. NCI-H1993 showed a relative viability of 0.606. For NCI-H2009, the relative viability was 0.387. With NCI-H2023 the relative viability was 0.202. For NCI-H2085, the relative viability was 0.54. NCI-H2087 showed a relative viability of 0.194. In the case of NCI-H2126, the relative viability is reported as 0.565. NCI-H2170 was tested, and the relative viability was 0.402. For NCI-H2342, the relative viability was 0.723. NCI-H2347 was tested, and the relative viability was 0.608.

Same assay, conditions: first compound 1 µM
In the case of LXF-289, the relative viability is reported as 0.398. Work on NCI-H23 yielded a relative viability of 0.308. Cell Line NCI-H322M has a relative viability of 0.713. For NCI-H358, the relative viability was 0.214. Cell Line NCI-H441 has a relative viability of 0.244. In the case of NCI-H460, the relative viability is reported as 0.452. Cell Line NCI-H520 has a relative viability of 0.482. With NCI-H522 the relative viability was 0.658. NCI-H596 showed a relative viability of 1.11. With NCI-H647 the relative viability was 0.448. NCI-H650 showed a relative viability of 0.343. Cell Line NCI-H661 has a relative viability of 0.569. NCI-H838 was tested, and the relative viability was 0.474. NCI-H1355 was tested, and the relative viability was 0.346. For NCI-H1395, the relative viability was 0.732. NCI-H1437 showed a relative viability of 0.578. Work on NCI-H1650 yielded a relative viability of 0.468.
